Assay results taken from PubChem BioAssay AID1259407 (Chemical Carcinogenesis Research Information System (CCRIS), 2018).
Calls of active or inactive are those of the source. The rule behind the calls is not given here.

Test system: CCRIS mutagenicity, Ames/micronucleus/aberration tests
Assay: CCRIS mutagenicity studies
[1] = Test System: AMES SALMONELLA TYPHIMURIUM, Strain/Indicator: TA98, Metabolic Activation: NONE, Method: STANDARD PLATE
[2] = Test System: AMES SALMONELLA TYPHIMURIUM, Strain/Indicator: TA100, Metabolic Activation: NONE, Method: STANDARD PLATE
[3] = Test System: AMES SALMONELLA TYPHIMURIUM, Strain/Indicator: TA1535, Metabolic Activation: NONE, Method: STANDARD PLATE
[4] = Test System: AMES SALMONELLA TYPHIMURIUM, Strain/Indicator: TA1537, Metabolic Activation: NONE, Method: STANDARD PLATE

Cc1nc2c(cc(C)c3ccc4ccc(O)cc4c32)[nH]1
mutagenic call (Test System: AMES SALMONELLA TYPHIMURIUM, Strain/Indicator: TA98, Metabolic Activation: RAT, LIVER, S-9, AROCLOR, Method: STANDARD PLATE): active; positive

c1c[nH]cn1
mutagenic call (Test System: AMES SALMONELLA TYPHIMURIUM, Strain/Indicator: TA97, Metabolic Activation: NONE, Method: STANDARD PLATE): inactive; negative | mutagenic call (Test System: AMES SALMONELLA TYPHIMURIUM, Strain/Indicator: TA97, Metabolic Activation: RAT, LIVER, S-9, PHENOBARBITAL AND BETA-NAPHTHOFLAVONE, Method: STANDARD PLATE): inactive; negative | mutagenic call [1]: inactive; negative | mutagenic call (Test System: AMES SALMONELLA TYPHIMURIUM, Strain/Indicator: TA98, Metabolic Activation: RAT, LIVER, S-9, PHENOBARBITAL AND BETA-NAPHTHOFLAVONE, Method: STANDARD PLATE): inactive; negative | mutagenic call [2]: inactive; negative | mutagenic call (Test System: AMES SALMONELLA TYPHIMURIUM, Strain/Indicator: TA100, Metabolic Activation: RAT, LIVER, S-9, PHENOBARBITAL AND BETA-NAPHTHOFLAVONE, Method: STANDARD PLATE): inactive; negative | mutagenic call (Test System: AMES SALMONELLA TYPHIMURIUM, Strain/Indicator: TA102, Metabolic Activation: NONE, Method: STANDARD PLATE): inactive; negative | mutagenic call (Test System: AMES SALMONELLA TYPHIMURIUM, Strain/Indicator: TA102, Metabolic Activation: RAT, LIVER, S-9, PHENOBARBITAL AND BETA-NAPHTHOFLAVONE, Method: STANDARD PLATE): inactive; negative | mutagenic call (Test System: UDS RAT HEPATOCYTES, Strain/Indicator: THY INCORP, Metabolic Activation: NONE, Method: AUTORADIOGRAPHY): inactive; negative

CC(=O)N(C(C)=O)c1ccc(C)c(N=Nc2ccccc2C)c1
mutagenic call (Test System: AMES SALMONELLA TYPHIMURIUM, Strain/Indicator: TA98, Metabolic Activation: NONE, Method: SUSPENSION/PLATE): inactive; negative | mutagenic call (Test System: AMES SALMONELLA TYPHIMURIUM, Strain/Indicator: TA98, Metabolic Activation: RAT, LIVER, S-9, PHENOBARBITAL AND 5,6-BENZOFLAVONE, Method: SUSPENSION/PLATE): inactive; negative | mutagenic call (Test System: AMES SALMONELLA TYPHIMURIUM, Strain/Indicator: TA100, Metabolic Activation: NONE, Method: SUSPENSION/PLATE): inactive; negative | mutagenic call (Test System: AMES SALMONELLA TYPHIMURIUM, Strain/Indicator: TA100, Metabolic Activation: RAT, LIVER, S-9, PHENOBARBITAL AND 5,6-BENZOFLAVONE, Method: SUSPENSION/PLATE): inactive; negative

O=C(Cl)c1c(Cl)cccc1Cl
mutagenic call (Test System: AMES SALMONELLA TYPHIMURIUM, Strain/Indicator: TA98, Metabolic Activation: NONE, Method: PREINCUBATION): active; positive | mutagenic call (Test System: AMES SALMONELLA TYPHIMURIUM, Strain/Indicator: TA98, Metabolic Activation: RAT LIVER S-9, PCB, Method: PREINCUBATION): active; positive | mutagenic call (Test System: AMES SALMONELLA TYPHIMURIUM, Strain/Indicator: TA100, Metabolic Activation: NONE, Method: PREINCUBATION): active; positive | mutagenic call (Test System: AMES SALMONELLA TYPHIMURIUM, Strain/Indicator: TA100, Metabolic Activation: RAT LIVER S-9, PCB, Method: PREINCUBATION): active; positive | mutagenic call (Test System: AMES SALMONELLA TYPHIMURIUM, Strain/Indicator: TA104, Metabolic Activation: NONE, Method: PREINCUBATION): inactive; negative | mutagenic call (Test System: AMES SALMONELLA TYPHIMURIUM, Strain/Indicator: TA104, Metabolic Activation: RAT LIVER S-9, PCB, Method: PREINCUBATION): active; positive | mutagenic call (Test System: E.COLI, Strain/Indicator: WP2 UVRA, Metabolic Activation: NONE, Method: PREINCUBATION): active; positive | mutagenic call (Test System: E.COLI, Strain/Indicator: WP2 UVRA, Metabolic Activation: RAT LIVER S-9, PCB, Method: PREINCUBATION): active; positive

CCc1ccc(NO)cc1
mutagenic call (Test System: E. COLI, Strain/Indicator: WP2 UVRA, Metabolic Activation: NONE, Method: FLUCTUATION TEST): active; positive

CC(=O)OCN(CCCCCl)N=O
mutagenic call (Test System: AMES SALMONELLA TYPHIMURIUM, Strain/Indicator: TA92, Metabolic Activation: NONE, Method: STANDARD PLATE): active; positive | mutagenic call [3]: active; positive

O=S(=O)(Oc1ccc(Cl)cc1Cl)c1cccc2cccnc12
mutagenic call [1]: inactive; negative | mutagenic call (Test System: AMES SALMONELLA TYPHIMURIUM, Strain/Indicator: TA98, Metabolic Activation: RAT, LIVER, S-9, AROCLOR 1254, Method: STANDARD PLATE): active; positive | mutagenic call [2]: inactive; negative | mutagenic call (Test System: AMES SALMONELLA TYPHIMURIUM, Strain/Indicator: TA100, Metabolic Activation: RAT, LIVER, S-9, AROCLOR 1254, Method: STANDARD PLATE): active; positive | mutagenic call [3]: inactive; negative | mutagenic call (Test System: AMES SALMONELLA TYPHIMURIUM, Strain/Indicator: TA1535, Metabolic Activation: RAT, LIVER, S-9, AROCLOR 1254, Method: STANDARD PLATE): inactive; negative | mutagenic call [4]: inactive; negative | mutagenic call (Test System: AMES SALMONELLA TYPHIMURIUM, Strain/Indicator: TA1537, Metabolic Activation: RAT, LIVER, S-9, AROCLOR 1254, Method: STANDARD PLATE): inactive; negative

COc1cc(O)ccc1Nc1c2ccccc2nc2ccccc12
mutagenic call [4]: active; positive
